Experimental data from ChEMBL document CHEMBL1201862, “PubChem BioAssay data set” (2004).
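Method: 48-hour compound exposure of cells in 96-well plates, five concentrations, linear interpolation of endpoints. GI50 is the concentration that inhibits growth by half.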 Active and inactive are the calls of the source. Cut-off read from the data, not from the text of the source: active = GI50 up to about 1.1 µM and inactive = higher.

How the values were obtained:
Experiment in all cases: NCI anticancer screen, dose series, 48 h
HCT-15 = test system: HCT-15
XF498 = test system: XF498
EKVX = test system: EKVX
SK-MEL-28 = test system: SK-MEL-28
DMS-273 = test system: DMS-273
HT-29 = test system: HT-29
HL-60 = test system: HL-60
HCC 2998 = test system: HCC 2998
Malme-3M = test system: Malme-3M
SK-OV-3 = test system: SK-OV-3
UACC-62 = test system: UACC-62
K562 = test system: K562
RPMI-8226 = test system: RPMI-8226
CCRF-CEM = test system: CCRF-CEM
786-0 = test system: 786-0
HOP-92 = test system: HOP-92
DLD-1 = test system: DLD-1
M14 = test system: M14
SW-620 = test system: SW-620
SR = test system: SR
NCI-H226 = test system: NCI-H226
SF-539 = test system: SF-539
SK-MEL-2 = test system: SK-MEL-2
SNB-75 = test system: SNB-75
U-251 = test system: U-251
OVCAR-5 = test system: OVCAR-5
CAKI-1 = test system: CAKI-1
UACC-257 = test system: UACC-257
LOX IMVI = test system: LOX IMVI
A498 = test system: A498
DMS-114 = test system: DMS-114
SF-268 = test system: SF-268
NCI-H23 = test system: NCI-H23
HOP-62 = test system: HOP-62
M19-MEL = test system: M19-MEL
HOP-18 = test system: HOP-18
OVCAR-3 = test system: OVCAR-3
SNB-78 = test system: SNB-78
ACHN = test system: ACHN
HCT-116 = test system: HCT-116
RXF 393 = test system: RXF 393
OVCAR-8 = test system: OVCAR-8
OVCAR-4 = test system: OVCAR-4
UO-31 = test system: UO-31
NCI-H522 = test system: NCI-H522
COLO 205 = test system: COLO 205
KM12 = test system: KM12
SK-MEL-5 = test system: SK-MEL-5
SF-295 = test system: SF-295
KM-20L2 = test system: KM-20L2
SN12C = test system: SN12C
MOLT-4 = test system: MOLT-4
LXFL 529 = test system: LXFL 529
SNB-19 = test system: SNB-19
NCI-H460 = test system: NCI-H460
TK-10 = test system: TK-10
IGROV-1 = test system: IGROV-1
A549 = test system: A549

CC1OC(CC(=O)O)Cc2c(O)c3c(c(O)c21)C(=O)C=C(C1=CC(=O)c2c(O)c4c(c(O)c2C1=O)CC(CC(=O)O)OC4C)C3=O (stereo not given)
GI50 (HCT-15): 11.6 µM
GI50 (XF498): 17.5 µM (inactive)
GI50 (EKVX): 13.5 µM (inactive)
GI50 (SK-MEL-28): 14.7 µM (inactive)
GI50 (DMS-273): 20.4 µM (inactive)
GI50 (HT-29): 18.5 µM (inactive)
GI50 (HL-60): 3.03 µM (inactive)
GI50 (HCC 2998): 46.3 µM (inactive)
GI50 (Malme-3M): 14.5 µM (inactive)
GI50 (SK-OV-3): > 100 µM (inactive)
GI50 (UACC-62): 12.8 µM (inactive)
GI50 (K562): 9.4 µM (inactive)
GI50 (RPMI-8226): 12.4 µM (inactive)
GI50 (CCRF-CEM): 2.75 µM (inactive)
GI50 (786-0): 21.4 µM (inactive)
GI50 (HOP-92): 24.3 µM (inactive)
GI50 (DLD-1): 12.7 µM (inactive)
GI50 (M14): 15 µM (inactive)
GI50 (SW-620): 7.4 µM (inactive)
GI50 (SR): 3.69 µM (inactive)
GI50 (NCI-H226): 50.8 µM (inactive)
GI50 (SF-539): 19.1 µM (inactive)
GI50 (SK-MEL-2): 21.2 µM (inactive)
GI50 (SNB-75): 59.6 µM (inactive)
GI50 (U-251): 26.1 µM (inactive)
GI50 (OVCAR-5): 43.8 µM (inactive)
GI50 (CAKI-1): 29.1 µM (inactive)
GI50 (UACC-257): 13.4 µM (inactive)
GI50 (LOX IMVI): 16.5 µM (inactive)
GI50 (A498): 18.9 µM (inactive)
GI50 (DMS-114): 15 µM (inactive)
GI50 (SF-268): 32 µM (inactive)
GI50 (NCI-H23): 17.6 µM (inactive)
GI50 (HOP-62): > 100 µM (inactive)
GI50 (M19-MEL): 20.1 µM (inactive)
GI50 (HOP-18): 22 µM (inactive)
GI50 (OVCAR-3): 27 µM (inactive)
GI50 (SNB-78): 25.8 µM (inactive)
GI50 (ACHN): 26.1 µM (inactive)
GI50 (HCT-116): 10.9 µM (inactive)
GI50 (RXF 393): 6.14 µM (inactive)
GI50 (OVCAR-8): 23.4 µM (inactive)
GI50 (OVCAR-4): 17.3 µM (inactive)
GI50 (UO-31): 47.2 µM (inactive)
GI50 (NCI-H522): 6.25 µM (inactive)
GI50 (COLO 205): 5.28 µM (inactive)
GI50 (KM12): 39.1 µM (inactive)
GI50 (SK-MEL-5): 16.4 µM (inactive)
GI50 (SF-295): 88.7 µM (inactive)
GI50 (KM-20L2): 22.2 µM (inactive)
GI50 (SN12C): 16.6 µM (inactive)
GI50 (MOLT-4): 2.69 µM (inactive)
GI50 (LXFL 529): 8.81 µM (inactive)
GI50 (SNB-19): > 100 µM (inactive)
GI50 (NCI-H460): 60.8 µM (inactive)
GI50 (TK-10): 57.9 µM (inactive)
GI50 (IGROV-1): 30.7 µM (inactive)
GI50 (A549): 45.1 µM (inactive)

COc1ccc(C2COc3c(ccc(OC)c3OC)C2=O)cc1OC (stereo not given)
GI50 (XF498): 94.8 µM (inactive)
GI50 (EKVX): > 100 µM (inactive)
GI50 (SK-MEL-28): > 100 µM (inactive)
GI50 (HT-29): > 100 µM (inactive)
GI50 (HL-60): > 100 µM (inactive)
GI50 (HCC 2998): > 100 µM (inactive)
GI50 (Malme-3M): > 100 µM (inactive)
GI50 (SK-OV-3): > 100 µM (inactive)
GI50 (UACC-62): > 100 µM (inactive)
GI50 (K562): > 100 µM (inactive)
GI50 (RPMI-8226): > 100 µM (inactive)
GI50 (CCRF-CEM): > 100 µM (inactive)
GI50 (786-0): > 100 µM (inactive)
GI50 (HOP-92): > 100 µM (inactive)
GI50 (DLD-1): > 100 µM (inactive)
GI50 (M14): > 100 µM (inactive)
GI50 (SW-620): > 100 µM (inactive)
GI50 (SR): > 100 µM (inactive)
GI50 (NCI-H226): > 100 µM (inactive)
GI50 (SF-539): > 100 µM (inactive)
GI50 (SNB-75): > 100 µM (inactive)
GI50 (U-251): > 100 µM (inactive)
GI50 (CAKI-1): > 100 µM (inactive)
GI50 (UACC-257): > 100 µM (inactive)
GI50 (LOX IMVI): > 100 µM (inactive)
GI50 (A498): > 100 µM (inactive)
GI50 (DMS-114): 68.7 µM (inactive)
GI50 (SF-268): > 100 µM (inactive)
GI50 (NCI-H23): > 100 µM (inactive)
GI50 (HOP-62): > 100 µM (inactive)
GI50 (M19-MEL): > 100 µM (inactive)
GI50 (HOP-18): > 100 µM (inactive)
GI50 (OVCAR-3): > 100 µM (inactive)
GI50 (SNB-78): > 100 µM (inactive)
GI50 (ACHN): > 100 µM (inactive)
GI50 (HCT-116): > 100 µM (inactive)
GI50 (RXF 393): > 100 µM (inactive)
GI50 (OVCAR-8): > 100 µM (inactive)
GI50 (OVCAR-4): > 100 µM (inactive)
GI50 (UO-31): > 100 µM (inactive)
GI50 (NCI-H522): > 100 µM (inactive)
GI50 (COLO 205): > 100 µM (inactive)
GI50 (KM12): > 100 µM (inactive)
GI50 (SK-MEL-5): > 100 µM (inactive)
GI50 (SF-295): > 100 µM (inactive)
GI50 (KM-20L2): > 100 µM (inactive)
GI50 (SN12C): > 100 µM (inactive)
GI50 (MOLT-4): > 100 µM (inactive)
GI50 (LXFL 529): > 100 µM (inactive)
GI50 (SNB-19): > 100 µM (inactive)
GI50 (NCI-H460): > 100 µM (inactive)
GI50 (TK-10): > 100 µM (inactive)
GI50 (IGROV-1): > 100 µM (inactive)
GI50 (A549): > 100 µM (inactive)

CN1CCCC2[C@@H]3CCC4c5nonc5CC[C@]4(C)C3CC[C@@]21C (stereo not given in full)
GI50 (HCT-15): 57.7 µM
GI50 (XF498): 24.4 µM (inactive)
GI50 (EKVX): > 100 µM (inactive)
GI50 (SK-MEL-28): 37.6 µM (inactive)
GI50 (DMS-273): 93.3 µM (inactive)
GI50 (HT-29): 38.1 µM (inactive)
GI50 (Malme-3M): > 100 µM (inactive)
GI50 (SK-OV-3): 17.9 µM (inactive)
GI50 (UACC-62): 24.7 µM (inactive)
GI50 (K562): 67.8 µM (inactive)
GI50 (RPMI-8226): > 100 µM (inactive)
GI50 (786-0): > 100 µM (inactive)
GI50 (DLD-1): 51.1 µM (inactive)
GI50 (SW-620): > 100 µM (inactive)
GI50 (SR): > 100 µM (inactive)
GI50 (NCI-H226): > 100 µM (inactive)
GI50 (SF-539): > 100 µM (inactive)
GI50 (SK-MEL-2): > 100 µM (inactive)
GI50 (SNB-75): 23.4 µM (inactive)
GI50 (U-251): > 100 µM (inactive)
GI50 (OVCAR-5): > 100 µM (inactive)
GI50 (CAKI-1): > 100 µM (inactive)
GI50 (UACC-257): 35 µM (inactive)
GI50 (DMS-114): > 100 µM (inactive)
GI50 (NCI-H23): > 100 µM (inactive)
GI50 (M19-MEL): 63.8 µM (inactive)
GI50 (HOP-18): > 100 µM (inactive)
GI50 (SNB-78): > 100 µM (inactive)
GI50 (ACHN): > 100 µM (inactive)
GI50 (HCT-116): > 100 µM (inactive)
GI50 (RXF 393): 50.1 µM (inactive)
GI50 (OVCAR-8): > 100 µM (inactive)
GI50 (OVCAR-4): > 100 µM (inactive)
GI50 (UO-31): > 100 µM (inactive)
GI50 (NCI-H522): > 100 µM (inactive)
GI50 (COLO 205): > 100 µM (inactive)
GI50 (KM12): > 100 µM (inactive)
GI50 (SK-MEL-5): 42.5 µM (inactive)
GI50 (SF-295): 43.2 µM (inactive)
GI50 (KM-20L2): 23.3 µM (inactive)
GI50 (SN12C): 98.6 µM (inactive)
GI50 (MOLT-4): > 100 µM (inactive)
GI50 (LXFL 529): 84.7 µM (inactive)
GI50 (SNB-19): > 100 µM (inactive)
GI50 (NCI-H460): > 100 µM (inactive)
GI50 (TK-10): > 100 µM (inactive)
GI50 (IGROV-1): > 100 µM (inactive)
GI50 (A549): > 100 µM (inactive)
